According to paper PMC4224572, “Peptidomimetic inhibitors of N-myristoyltransferase from human malaria and leishmaniasis parasites” (Organic & Biomolecular Chemistry, 2014):
Square brackets hold non-standard residues; d marks the D form. Peptide text beside a SMILES is read from it. Aun = NCCCCCCCCCCC(=O)O; Aoc = NCCCCCCCC(=O)O

What was measured:
[1] = biological target: T1, PvNMT (Plasmodium vivax, UniProt A5K1A2); assay: Fluorogenic NMT inhibition assay, PvNMT; format: biochemical; details: recombinant enzyme; mean of duplicate or triplicate experiments
T1 sequence (A5K1A2 1-410): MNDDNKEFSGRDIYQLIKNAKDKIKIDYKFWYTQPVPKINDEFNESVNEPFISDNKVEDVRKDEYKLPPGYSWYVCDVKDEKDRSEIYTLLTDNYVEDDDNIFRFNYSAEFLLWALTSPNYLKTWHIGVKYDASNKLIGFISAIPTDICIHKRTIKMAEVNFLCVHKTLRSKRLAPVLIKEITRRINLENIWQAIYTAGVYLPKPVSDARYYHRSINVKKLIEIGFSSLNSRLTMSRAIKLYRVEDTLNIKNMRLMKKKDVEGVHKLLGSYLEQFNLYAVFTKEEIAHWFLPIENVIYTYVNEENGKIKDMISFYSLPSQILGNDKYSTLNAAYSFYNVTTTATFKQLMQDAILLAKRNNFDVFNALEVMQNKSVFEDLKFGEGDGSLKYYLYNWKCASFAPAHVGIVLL
Source text: (§1) 2-Methylimidazolyl analogues were synthesized building on the hypothesis that 2-methylimidazole (pK a ∼ 7.9)[18] is a reasonable mimetic for N-terminal Gly in the peptide substrate (pK a ∼ 8.0).[19] To cover a range of basicity, imidazolyl (pK a ∼ 7.0) and amine analogues (pK a ∼ 10.0) were also synthesized, each exploring a range of chain lengths (n) (Table 1). To probe versatility at the C-terminus, primary amides, carboxylic acids, 2-cyclohexylethyl and 2-(1-cyclohexenyl)ethyl amides were incorporated. Using a previously reported fluorogenic assay,[20] inhibitors were tested against the parasitic enzymes and HsNMT1 in order to explore their selectivity against a relevant host enzyme. […] Further reduction of the chain length (11 and 12, n = 8 and 7, respectively) led to loss of detectable activity against Plasmodium NMTs and significant loss of activity against LdNMT and HsNMT1.

[2] = biological target: T2, PfNMT (Plasmodium falciparum, UniProt Q9U419); assay: Fluorogenic NMT inhibition assay, PfNMT; format: biochemical; details: recombinant enzyme; mean of duplicate or triplicate experiments
T2 sequence (Q9U419 1-410): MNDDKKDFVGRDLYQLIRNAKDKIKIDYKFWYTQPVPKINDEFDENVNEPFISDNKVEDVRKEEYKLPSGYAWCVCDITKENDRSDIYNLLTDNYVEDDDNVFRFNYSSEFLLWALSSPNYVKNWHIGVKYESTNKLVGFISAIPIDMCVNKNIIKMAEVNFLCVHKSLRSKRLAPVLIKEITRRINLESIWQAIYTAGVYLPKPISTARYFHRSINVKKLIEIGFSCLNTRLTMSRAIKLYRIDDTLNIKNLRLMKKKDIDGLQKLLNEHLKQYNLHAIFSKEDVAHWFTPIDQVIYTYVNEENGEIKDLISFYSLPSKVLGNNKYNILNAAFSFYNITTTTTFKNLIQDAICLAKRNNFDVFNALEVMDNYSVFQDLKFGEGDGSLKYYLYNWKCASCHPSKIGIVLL
Source text: as §1

[3] = system: LdNMT; assay: Fluorogenic NMT inhibition assay, LdNMT; format: biochemical, L. donovani; details: for IC50: recombinant enzyme, mean of duplicate or triplicate experiments
Source text: as §1

[4] = biological target: T3, HsNMT1 (Homo sapiens, UniProt P30419); assay: Fluorogenic NMT inhibition assay, HsNMT1; format: biochemical, H. sapiens; details: for IC50: mean of duplicate or triplicate experiments
T3 sequence (P30419 1-496): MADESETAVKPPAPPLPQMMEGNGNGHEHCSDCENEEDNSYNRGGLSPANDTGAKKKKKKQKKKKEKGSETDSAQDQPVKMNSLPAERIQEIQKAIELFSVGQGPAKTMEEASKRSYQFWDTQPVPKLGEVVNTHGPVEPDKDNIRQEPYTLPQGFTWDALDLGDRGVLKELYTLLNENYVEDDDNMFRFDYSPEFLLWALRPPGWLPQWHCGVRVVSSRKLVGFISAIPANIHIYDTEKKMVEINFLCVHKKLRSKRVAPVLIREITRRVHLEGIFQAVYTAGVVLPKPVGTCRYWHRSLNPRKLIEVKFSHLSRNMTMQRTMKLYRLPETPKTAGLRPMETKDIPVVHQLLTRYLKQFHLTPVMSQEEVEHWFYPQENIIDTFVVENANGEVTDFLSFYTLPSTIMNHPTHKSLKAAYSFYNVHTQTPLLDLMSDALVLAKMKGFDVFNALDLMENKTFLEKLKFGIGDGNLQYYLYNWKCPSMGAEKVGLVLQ
Source text: 2-Methylimidazolyl analogues were synthesized building on the hypothesis that 2-methylimidazole (pK a ∼ 7.9)[18] is a reasonable mimetic for N-terminal Gly in the peptide substrate (pK a ∼ 8.0).[19] To cover a range of basicity, imidazolyl (pK a ∼ 7.0) and amine analogues (pK a ∼ 10.0) were also synthesized, each exploring a range of chain lengths (n) (Table 1). To probe versatility at the C-terminus, primary amides, carboxylic acids, 2-cyclohexylethyl and 2-(1-cyclohexenyl)ethyl amides were incorporated. Using a previously reported fluorogenic assay,[20] inhibitors were tested against the parasitic enzymes and HsNMT1 in order to explore their selectivity against a relevant host enzyme.

[5] = hydroxyl substituted for the N-terminal amine

For NCCCCCCCCCCC(=O)N[C@@H](CO)C(=O)N[C@@H](CCCCN)C(=O)NCCC1CCCCC1 [Compound 9], the IC50 [1] was 1.04 ± 0.01 µM, the IC50 [2] was greater than 100 µM and the IC50 [3] was 0.14 ± 0.01 µM.
For NCCCCCCCC(=O)N[C@@H](CO)C(=O)N[C@@H](CCCCN)C(=O)NCCC1CCCCC1 [Compound 12], the IC50 [1] was greater than 100 µM, the IC50 [2] was greater than 100 µM and the IC50 [3] was 1.39 ± 0.18 µM. The IC50 [4] was 6.75 ± 0.45 µM.
NCCCC[C@H](NC(=O)[C@H](CO)NC(=O)CCCCCCCCCCn1ccnc1)C(=O)NCCC1CCCCC1 [Compound 1] was tested, and the IC50 [1] was greater than 100 µM, the IC50 [2] was greater than 100 µM and the IC50 [3] was 25.8 ± 8.2 µM. The IC50 [4] was 47.6 ± 3.8 µM.
Work on NCCCC[C@H](NC(=O)[C@H](CO)NC(=O)CCCCCCCCCn1ccnc1)C(=O)NCCC1=CCCCC1 [Compound 18] yielded an IC50 [1] greater than 100 µM, an IC50 [2] greater than 100 µM and an IC50 [3] greater than 100 µM. It also gave an IC50 [4] greater than 100 µM.
With Cc1nccn1CCCCCCCCCCC(=O)N[C@@H](CO)C(=O)N[C@@H](CCCCN)C(=O)NCCC1=CCCCC1 [Compound 19] the IC50 [1] was greater than 100 µM, the IC50 [2] was greater than 100 µM and the IC50 [3] was greater than 100 µM. For the same molecule, the IC50 [4] was greater than 100 µM.
NCCCC[C@H](NC(=O)[C@H](CO)NC(=O)CCCCCCCn1ccnc1)C(=O)NCCC1CCCCC1 [Compound 4] was tested, and the IC50 [1] was greater than 100 µM, the IC50 [2] was greater than 100 µM and the IC50 [3] was 34.8 ± 3.7 µM. For the same molecule, the IC50 [4] was greater than 100 µM.
Work on NCCCC[C@H](NC(=O)[C@H](CO)NC(=O)CCCCCCCCn1ccnc1)C(=O)NCCC1CCCCC1 [Compound 3] yielded an IC50 [1] greater than 100 µM, an IC50 [2] greater than 100 µM and an IC50 [3] of 16.7 ± 2.5 µM. For the same molecule, the IC50 [4] was greater than 100 µM.
For Cc1nccn1CCCCCCCCCC(=O)N[C@@H](CO)C(=O)N[C@@H](CCCCN)C(=O)NCCC1=CCCCC1 [Compound 20], the IC50 [1] was greater than 100 µM, the IC50 [2] was greater than 100 µM and the IC50 [4] was greater than 100 µM.
In the case of Cc1nccn1CCCCCCCCCC(=O)N[C@@H](CO)C(=O)N[C@@H](CCCCN)C(=O)NCCC1CCCCC1 [Compound 6], the IC50 [1] is reported as greater than 100 µM, the IC50 [2] is reported as greater than 100 µM and the IC50 [3] is reported as 0.63 ± 0.01 µM. It also gave an IC50 [4] of 7.92 ± 0.83 µM.
NCCCC[C@H](NC(=O)[C@H](CO)NC(=O)CCCCCCCCCO)C(=O)NCCC1CCCCC1 [Compound 46] was tested, and the “loss in activity, Leishmania NMT” value [3, 5] was greater than 100 folds and the “loss in activity, Human NMT” value [4, 5] was 1000 folds.
With NCCCCCCCCCCC(=O)N[C@@H](CO)C(=O)N[C@@H](CCCCN)C(=O)O [Compound 25] (H-[Aun]-Ser-Lys-OH) the IC50 [1] was greater than 100 µM, the IC50 [2] was greater than 100 µM and the IC50 [3] was 86.7 ± 10.4 µM. For the same molecule, the IC50 [4] was 39.2 ± 2 µM.
Molecule NCCCCCCCCCC(=O)N[C@@H](CO)C(=O)N[C@@H](CCCCN)C(N)=O [Compound 22] has an IC50 [1] of 22.9 ± 3.5 µM, an IC50 [2] greater than 100 µM and an IC50 [3] of 1.36 ± 0.2 µM. It also gave an IC50 [4] of 1.36 ± 0.29 µM.
For NCCCC[C@H](NC(=O)[C@H](CO)NC(=O)CCCCCCCCCCn1ccnc1)C(=O)NCCC1=CCCCC1 [Compound 17], the IC50 [1] was greater than 100 µM, the IC50 [2] was greater than 100 µM and the IC50 [3] was greater than 100 µM. It also gave an IC50 [4] greater than 100 µM.
Molecule NCCCC[C@H](NC(=O)[C@H](CO)NC(=O)CCCCCCCCCn1ccnc1)C(=O)NCCC1CCCCC1 [Compound 2] has an IC50 [1] greater than 100 µM, an IC50 [2] greater than 100 µM and an IC50 [3] of 10.6 ± 1.6 µM. The IC50 [4] was 44 ± 7.1 µM.
Molecule NCCCCCCCCCCC(=O)N[C@@H](CO)C(=O)N[C@@H](CCCCN)C(N)=O [Compound 21] (H-[Aun]-Ser-Lys-NH2) has an IC50 [1] greater than 100 µM, an IC50 [2] greater than 100 µM and an IC50 [3] of 13.3 ± 2 µM. The IC50 [4] was 5.4 ± 0.41 µM.
For NCCCCCCCC(=O)N[C@@H](CO)C(=O)N[C@@H](CCCCN)C(N)=O [Compound 24] (H-[Aoc]-Ser-Lys-NH2), the IC50 [1] was greater than 100 µM, the IC50 [2] was greater than 100 µM and the IC50 [3] was 61.9 ± 4.7 µM. For the same molecule, the IC50 [4] was greater than 100 µM.
Work on Cc1nccn1CCCCCCCC(=O)N[C@@H](CO)C(=O)N[C@@H](CCCCN)C(=O)NCCC1CCCCC1 [Compound 8] yielded an IC50 [1] greater than 100 µM, an IC50 [2] greater than 100 µM and an IC50 [3] of 1.46 ± 0.22 µM. It also gave an IC50 [4] of 82.2 ± 14 µM.
With CC(=O)N[C@@H](CO)C(=O)N[C@@H](CCCCN)C(=O)NCCC1CCCCC1 [Compound 14] the IC50 [1] was greater than 100 µM, the IC50 [2] was greater than 100 µM and the IC50 [3] was greater than 100 µM. It also gave an IC50 [4] greater than 100 µM.
Cc1nccn1CCCCCCCCC(=O)N[C@@H](CO)C(=O)N[C@@H](CCCCN)C(=O)NCCC1CCCCC1 [Compound 7] gave an IC50 [1] greater than 100 µM, an IC50 [2] greater than 100 µM and an IC50 [3] of 3.42 ± 0.34 µM. It also gave an IC50 [4] of 49.9 ± 10.6 µM.
